Drawing on ChEMBL document CHEMBL1667751, “Synthesis and antimicrobial activity of highly functionalised novel β-lactam grafted spiropyrrolidines and pyrrolizidines” (2011), this text covers zone of inhibition for eight molecules.

Assay [1] deals with Staphylococcus aureus. Briefly: Antibacterial activity against Staphylococcus aureus at 100 ug/ml after 24 hrs agar diffusion method. It is filed as functional. The following applies: read-out: DIZ. A general note: In agar diffusion tests the substance spreads into inoculated agar from a disc or well.
The subject of assay [2] is Salmonella typhi. Briefly: Antibacterial activity against Salmonella typhi at 100 ug/ml after 24 hrs agar diffusion method. The assay is classed as functional, Salmonella enterica subsp. enterica serovar Typhi. The following applies: Salmonella enterica, read-out: DIZ.
Assay [3] deals with Staphylococcus aureus. Briefly: Antibacterial activity against Staphylococcus aureus at 75 ug/ml after 24 hrs agar diffusion method. The assay is classed as functional. The following applies: read-out: DIZ.
The test system of assay [4] is Proteus vulgaris. In words: Antibacterial activity against Proteus vulgaris at 25 ug/ml after 24 hrs agar diffusion method. The assay is classed as functional. The following applies: read-out: DIZ.
For assay [5], the system named is Proteus vulgaris. In words: Antibacterial activity against Proteus vulgaris at 100 ug/ml after 24 hrs agar diffusion method. The assay is classed as functional. As to conditions: read-out: DIZ.
Assay [6] concerns Staphylococcus aureus. Briefly: Antibacterial activity against Staphylococcus aureus at 25 ug/ml after 24 hrs agar diffusion method. The assay is classed as functional. The following applies: read-out: DIZ.
Assay [7] deals with Salmonella typhi. In words: Antibacterial activity against Salmonella typhi at 25 ug/ml after 24 hrs agar diffusion method. The following applies: Salmonella enterica, read-out: DIZ. It is filed as functional, Salmonella enterica subsp. enterica serovar Typhi.
The test system of assay [8] is Salmonella typhi. In words: Antibacterial activity against Salmonella typhi at 75 ug/ml after 24 hrs agar diffusion method. It is filed as functional, Salmonella enterica subsp. enterica serovar Typhi. As to conditions: Salmonella enterica, read-out: DIZ.
Assay [9] has as its system Proteus mirabilis. In words: Antibacterial activity against Proteus mirabilis at 75 ug/ml after 24 hrs agar diffusion method. It is filed as functional. As to conditions: read-out: DIZ.
Assay [10] deals with Salmonella typhi. Briefly: Antibacterial activity against Salmonella typhi at 50 ug/ml after 24 hrs agar diffusion method. It is filed as functional, Salmonella enterica subsp. enterica serovar Typhi. As to conditions: Salmonella enterica, read-out: DIZ.
The subject of assay [11] is Staphylococcus aureus. In words: Antibacterial activity against Staphylococcus aureus at 50 ug/ml after 24 hrs agar diffusion method. As to conditions: read-out: DIZ. It is filed as functional.
For assay [12], the system named is Proteus vulgaris. Briefly: Antibacterial activity against Proteus vulgaris at 75 ug/ml after 24 hrs agar diffusion method. The assay is classed as functional. As to conditions: read-out: DIZ.
Assay [13] relates to Proteus mirabilis. In words: Antibacterial activity against Proteus mirabilis at 25 ug/ml after 24 hrs agar diffusion method. The assay is classed as functional. The following applies: read-out: DIZ.
Assay [14] deals with Proteus mirabilis. In words: Antibacterial activity against Proteus mirabilis at 50 ug/ml after 24 hrs agar diffusion method. It is filed as functional. As to conditions: read-out: DIZ.
Assay [15] relates to Proteus vulgaris. In words: Antibacterial activity against Proteus vulgaris at 50 ug/ml after 24 hrs agar diffusion method. The assay is classed as functional. As to conditions: read-out: DIZ.
Assay [16] has as its system Proteus mirabilis. Briefly: Antibacterial activity against Proteus mirabilis at 100 ug/ml after 24 hrs agar diffusion method. It is filed as functional. The following applies: read-out: DIZ.

For the molecule `CCOC(=O)[C@@H]1[C@@H]([C@H]2[C@@H](Oc3ccccc3)C(=O)N2c2ccc(OC)cc2)CN(C)C12C(=O)c1ccccc1C2=O`, the zone of inhibition at 100 µg/mL in assay [1] is 18 mm; in assay [2], 19 mm; in [5] it was 23 mm; in assay [16] it was 18 mm. The zone of inhibition at 75 µg/mL in assay [3] is 16 mm; in [8], 13 mm; in assay [9] it was 16 mm; in assay [12], 20 mm. Besides, the zone of inhibition at 25 µg/mL worked out at 12 mm in assay [4], 11 mm in [6], 9 mm in assay [7] and 9 mm in [13]. In addition, the zone of inhibition at 50 µg/mL in [10] stood at 11 mm; in assay [11], 13 mm; in assay [14] it was 13 mm; in assay [15] it was 16 mm.
Consider `CCOC(=O)[C@@H]1[C@@H]([C@H]2[C@@H](c3ccccc3)C(=O)N2c2ccc(OC)cc2)CN(C)C12C(=O)c1ccccc1C2=O`, for which the zone of inhibition at 100 µg/mL in [1] amounted to 22 mm; in assay [2], 18 mm; in assay [5], 21 mm; in [16] it was 18 mm. Further, the zone of inhibition at 75 µg/mL in assay [3] worked out at 18 mm; in [8], 13 mm; in assay [9] it was 14 mm; in assay [12], 18 mm. The zone of inhibition at 25 µg/mL in assay [4], in [6] and in assay [13] was 11 mm in each case. The zone of inhibition at 50 µg/mL in assay [10] worked out at 9 mm; in assay [11], 15 mm; in assay [14] it was 13 mm; in assay [15] it was 14 mm.
`CCOC(=O)[C@@H]1[C@@H]([C@H]2[C@@H](Oc3ccccc3)C(=O)N2c2ccc(OC)cc2)C2CCCN2C12C(=O)c1ccccc1C2=O` (some centres not stated): the zone of inhibition at 100 µg/mL in assay [1] turned out to be 24 mm; in [2], 23 mm; in assay [5] it was 26 mm; in assay [16], 22 mm. The zone of inhibition at 75 µg/mL is 18 mm in assay [3], 17 mm in assay [8], 18 mm in assay [9] and 23 mm in assay [12]. Also, the zone of inhibition at 25 µg/mL worked out at 9 mm in [4], 9 mm in [6], 11 mm in [7] and 8 mm in assay [13]. Besides, the zone of inhibition at 50 µg/mL in [10] was 15 mm; in assay [11], 14 mm; in assay [14], 15 mm; in [15], 18 mm.
Take `CCOC(=O)[C@@H]1[C@@H]([C@H]2[C@@H](c3ccccc3)C(=O)N2c2ccc(OC)cc2)C2CCCN2C12C(=O)c1ccccc1C2=O` (some centres not stated): the zone of inhibition at 100 µg/mL in [1] was found to be 28 mm; in assay [2], 20 mm; in assay [5] it was 24 mm; in [16], 23 mm. Further, the zone of inhibition at 75 µg/mL came to 16 mm in assay [3], 14 mm in assay [8], 16 mm in [9] and 20 mm in [12]. In addition, the zone of inhibition at 25 µg/mL in assay [4] amounted to 12 mm; in assay [6], 9 mm; in assay [7] it was 9 mm; in [13] it was 10 mm. For the same molecule, the zone of inhibition at 50 µg/mL in assay [10] turned out to be 12 mm; in assay [11], 13 mm; in assay [14], 15 mm; in assay [15], 17 mm.
In the case of `CCOC(=O)[C@@H]1[C@@H]([C@H]2[C@@H](Oc3ccccc3)C(=O)N2c2ccc(OC)cc2)CN(C)[C@@]12C(=O)c1cccc3cccc2c13`, the zone of inhibition at 100 µg/mL came to 19 mm in assay [1], 16 mm in [2], 20 mm in assay [5] and 20 mm in assay [16]. In addition, the zone of inhibition at 75 µg/mL in assay [3] came out at 15 mm; in [8], 14 mm; in assay [9], 15 mm; in [12] it was 15 mm. The zone of inhibition at 25 µg/mL in assay [4], in assay [7] and in assay [13] was 9 mm each time. For the same molecule, the zone of inhibition at 50 µg/mL in [10] stood at 11 mm; in assay [11], 9 mm; in [14], 11 mm; in assay [15], 11 mm.
On to `CCOC(=O)[C@@H]1[C@@H]([C@H]2[C@@H](c3ccccc3)C(=O)N2c2ccc(OC)cc2)CN(C)[C@@]12C(=O)c1cccc3cccc2c13`, for which the zone of inhibition at 100 µg/mL was found to be 21 mm in assay [1], 18 mm in [2], 21 mm in [5] and 18 mm in assay [16]. For the same molecule, the zone of inhibition at 75 µg/mL in [3] worked out at 15 mm; in assay [8] it was 13 mm; in assay [9] it was 13 mm; in assay [12], 15 mm. Further, the zone of inhibition at 50 µg/mL in assay [10] amounted to 11 mm; in assay [11] it was 10 mm; in assay [14], 9 mm; in assay [15] it was 10 mm.
`CCOC(=O)[C@@H]1[C@@H]([C@H]2[C@@H](Oc3ccccc3)C(=O)N2c2ccc(OC)cc2)C2CCCN2[C@@]12C(=O)c1cccc3cccc2c13` (some centres not stated): the zone of inhibition at 100 µg/mL was 18 mm in assay [1], 20 mm in [5] and 20 mm in [16]. Also, the zone of inhibition at 75 µg/mL came to 14 mm in [3], 16 mm in [9] and 16 mm in [12]. For the same molecule, the zone of inhibition at 25 µg/mL in [4] was 9 mm; in [13], 10 mm. Further, the zone of inhibition at 50 µg/mL in [11] turned out to be 11 mm; in assay [14], 13 mm; in assay [15] it was 11 mm.
Take `CCOC(=O)[C@@H]1[C@@H]([C@H]2[C@@H](c3ccccc3)C(=O)N2c2ccc(OC)cc2)C2CCCN2[C@@]12C(=O)c1cccc3cccc2c13` (some centres not stated): the zone of inhibition at 100 µg/mL in assay [1] turned out to be 21 mm; in assay [5], 20 mm; in assay [16] it was 18 mm. Moreover, the figures for the zone of inhibition at 75 µg/mL in assay [3], in [9] and in assay [12] were 19 mm, 14 mm and 17 mm, respectively. The zone of inhibition at 25 µg/mL in [6] and in [13] was 9 mm in each case. Besides, the zone of inhibition at 50 µg/mL in [11] came to 14 mm; in assay [14] it was 11 mm; in assay [15] it was 12 mm.
